Test results as given in ChEMBL document CHEMBL1155440, “1-(5-carboxyindol-1-yl)propan-2-one inhibitors of human cytosolic phospholipase A(2)alpha with reduced lipophilicity: synthesis, biological activity, metabolic stability, solubility, bioavailability, and topical in vivo activity” (J Med Chem, 2010).
Calls of active or inactive are those of the source. The rule behind the calls is not given here.

Experiments:
[1] = Partition coefficient, log P at 5 mM by reverse phase HPLC analysis; type: physicochemical; details: octanol/water
[2] = tested on: Mus musculus; assay: Antiinflammatory activity in BALB/c mouse assessed as inhibition of benzalkonium chloride-induced ear edema at 0.005 mg/ear administered topically after 10 mins of benzalkonium chloride challenge measured after 7 hrs of induction of dermatitis; type: functional
[3] = tested on: Mus musculus; assay: Antiinflammatory activity in topically dosed BALB/c mouse assessed as inhibition of benzalkonium chloride-induced ear edema administered after 10 mins of benzalkonium chloride challenge measured after 1 to 7 hrs of induction of dermatitis; type: functional, organism-based
[4] = biological target: Phospholipase A2, major isoenzyme (Sus scrofa) (UniProt P00592); assay: Inhibition of pig pancreas group 1B sPLA2 assessed as inhibition of POPG cleavage at 10 uM after 30 mins by HPLC analysis
[5] = tested on: Mus musculus; assay: Antiinflammatory activity in BALB/c mouse assessed as inhibition of benzalkonium chloride-induced ear edema at 0.1 to 1 mg/ear administered topically after 10 mins of benzalkonium chloride challenge measured after 7 hrs of induction of dermatitis; type: functional, organism-based
[6] = biological target: T1, 85/88 kDa calcium-independent phospholipase A2 (Rattus norvegicus) (UniProt P97570); assay: Inhibition of Sprague-Dawley rat brain iPLA2 assessed as inhibition of substrate cleavage at 10 uM after 60 mins by HPLC analysis
T1 sequence (whole entry): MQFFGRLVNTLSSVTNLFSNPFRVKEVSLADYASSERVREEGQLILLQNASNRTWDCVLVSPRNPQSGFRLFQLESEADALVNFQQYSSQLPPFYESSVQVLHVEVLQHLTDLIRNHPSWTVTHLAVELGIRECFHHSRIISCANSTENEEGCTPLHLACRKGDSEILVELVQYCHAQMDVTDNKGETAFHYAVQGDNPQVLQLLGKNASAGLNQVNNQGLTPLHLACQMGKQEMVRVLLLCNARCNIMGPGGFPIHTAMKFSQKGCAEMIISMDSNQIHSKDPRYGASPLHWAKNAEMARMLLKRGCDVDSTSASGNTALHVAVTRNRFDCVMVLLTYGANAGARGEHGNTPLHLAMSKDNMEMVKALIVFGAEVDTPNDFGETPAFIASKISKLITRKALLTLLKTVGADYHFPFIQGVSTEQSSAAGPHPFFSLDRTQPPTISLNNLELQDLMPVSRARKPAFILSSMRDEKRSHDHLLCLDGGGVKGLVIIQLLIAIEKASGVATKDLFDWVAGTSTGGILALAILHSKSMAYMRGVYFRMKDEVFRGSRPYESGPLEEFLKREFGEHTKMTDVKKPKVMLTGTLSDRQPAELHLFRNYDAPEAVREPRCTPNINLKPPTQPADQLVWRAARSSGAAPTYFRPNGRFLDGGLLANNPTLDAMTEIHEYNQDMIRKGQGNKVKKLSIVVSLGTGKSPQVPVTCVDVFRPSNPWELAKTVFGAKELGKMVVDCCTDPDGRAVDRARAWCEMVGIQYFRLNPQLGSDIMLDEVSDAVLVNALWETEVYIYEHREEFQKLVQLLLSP

[7] = tested on: Mus musculus; assay: Antiinflammatory activity in BALB/c mouse assessed as inhibition of benzalkonium chloride-induced ear edema at 0.1 to 1 mg/ear administered topically after 10 mins of benzalkonium chloride challenge measured after 1 hr of induction of dermatitis; type: functional, organism-based
[8] = tested on: Mus musculus; assay: Antiinflammatory activity in BALB/c mouse assessed as inhibition of benzalkonium chloride-induced ear edema at 0.1 mg/ear administered topically after 10 mins of benzalkonium chloride challenge measured after 7 hrs of induction of dermatitis; type: functional
[9] = tested on: Mus musculus; assay: Antiinflammatory activity in BALB/c mouse assessed as inhibition of benzalkonium chloride-induced ear edema at 0.1 to 1 mg/ear administered topically after 10 mins of benzalkonium chloride challenge measured after 5 hrs of induction of dermatitis; type: functional, organism-based
[10] = tested on: Mus musculus; assay: Antiinflammatory activity in BALB/c mouse assessed as inhibition of benzalkonium chloride-induced ear edema at 0.01 mg/ear administered topically after 10 mins of benzalkonium chloride challenge measured after 5 to 7 hrs of induction of dermatitis; type: functional, organism-based
[11] = Inhibition of TPA-induced cPLA2alpha in human platelets assessed as inhibition of arachidonic acid production after 60 mins by UV-reverse phase HPLC analysis; details: 1 h

Chain of Phospholipase A2, major isoenzyme (Sus scrofa) (P00592 23-146 limits assumed): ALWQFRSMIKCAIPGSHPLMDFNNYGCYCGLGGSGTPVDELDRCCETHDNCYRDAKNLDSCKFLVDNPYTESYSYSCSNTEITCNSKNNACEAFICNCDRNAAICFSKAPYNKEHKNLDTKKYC

**Q.** For `CC(C)C(=O)c1cn(CC(=O)COc2ccc(Oc3ccccc3)cc2)c2ccc(C(=O)O)cc12`, which logP at 5000 µM [1] is on record?
**A.** 3.5

**Q.** And the “inhibition (INH)” value [2]?
**A.** 90%

**Q.** And the inhibition [3]?
**A.** Dose-dependent effect

**Q.** And the inhibition [4]?
**A.** inactive

**Q.** What about the inhibition [5] of the same molecule?
**A.** Active

**Q.** And the inhibition [6]?
**A.** inactive

**Q.** And the inhibition [7]?
**A.** Active

**Q.** What about the “inhibition (INH)” value [8] of the same molecule?
**A.** 84%

**Q.** What about the inhibition [9] of the same molecule?
**A.** Active

**Q.** And the inhibition [10]?
**A.** inactive

**Q.** And the IC50 [11]?
**A.** 15 nM
